The nature of the assay: Pulmonary delivery to rats (intratracheal drop instillation). To be noted: statement in words; Fig. 1 is a rat intratracheal drop instillation of the insulin of example 1. Type of assay: in vivo, male Wistar rats. Here is the method:
The test substance will be dosed pulmonary by the drop instillation method. In brief, male Wistar rats (app.250 g) are anaesthesized in app. […] fentanyl/dehydrodenzperidol/-dormicum given as a 6.6 ml/kg sc primingdose and followed by 3 maintainance doses of 3.3 ml/kg sc with an interval of 30 min. Ten minutes after the induction of anaesthesia, basal samples are obtained from the tail vein (t = -20 min) followed by a basal sample immediately prior to the dosing of test substance (t=0). At t=0, the test substance is dosed intra tracheally into one lung. A special cannula with rounded ending is mounted on a syringe containing the 200 ul air and test substance (1 ml/kg). Via the orifice, the cannula is introduced into the trachea and is forwarded into one of the main bronchi -just passing the bifurcature. During the insertion, the neck is palpated from the exterior to assure intratracheal positioning. The content of the syringe is injected followed by 2 sec pause. Thereafter, the cannula is slowly drawn back. The rats are kept anaesthesized during the test (blood samples for up to 4 or 8 hrs) and are euthanized after the experiment.

On to “A14E, B25H, B29K(N^ε-3-mdPEG24-Propionyl), desB30 human insulin [Example 1]”, for which the pulmonary efficacy entry is reported as “substantial protracted pulmonary efficacy”.

The values above are taken from patent EP2017288A1, “Protease stabilized, pegylated insulin analogues” (NOVO NORDISK A/S, priority 2007, dated 2009).
